These results are taken from patent US20120165339A1, “CYCLOPROPANE DERIVATIVES” (EISAI R&D MANAGEMENT CO., LTD., priority 2010, published 2012).

Read-outs that look alike come from different tables or passages of the source.

For experiment [1], the target named is T1, OX1 (Homo sapiens, UniProt O43613).
T1 sequence (O43613 1-425): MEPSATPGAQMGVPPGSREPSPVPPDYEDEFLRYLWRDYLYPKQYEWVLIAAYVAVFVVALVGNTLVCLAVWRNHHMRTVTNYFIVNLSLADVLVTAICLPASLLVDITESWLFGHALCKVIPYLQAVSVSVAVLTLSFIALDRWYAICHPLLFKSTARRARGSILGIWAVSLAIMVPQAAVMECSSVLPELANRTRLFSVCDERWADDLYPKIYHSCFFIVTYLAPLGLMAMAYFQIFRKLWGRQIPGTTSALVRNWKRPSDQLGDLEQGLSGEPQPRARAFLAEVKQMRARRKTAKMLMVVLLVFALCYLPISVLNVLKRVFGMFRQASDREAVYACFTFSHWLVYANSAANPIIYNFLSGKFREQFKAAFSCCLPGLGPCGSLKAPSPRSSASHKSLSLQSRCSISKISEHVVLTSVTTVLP
Nature of the experiment: Orexin-receptor binding ability, [125I]-OX-A, CHO cell membranes expressing OX1. Also noted: expressed in transfected cells; host or cells: CHO cells (membrane preparation). The protocol: (§1) The assay was carried out using a 96-well Wheat Germ Agglutinin Flash Plate (PerkinElmer). The volume in a single assay well was 100 ul, and the composition of the reaction solution was as follows:
(§2) 25 mM HEPES (pH 7.5), 1 mM CaCl2, 4.5 mM MgCl2, 0.5% BSA (bovine serum albumin), 0.1% sodium azide, 0.05% Tween-20, and 0.2% DMSO.
Cell membranes were prepared from recombinant CHO cells that expressed OX2 or OX1. The cell membranes were used in an amount of 5 μg protein/assay. […] Finally, the radioactivity of each well was measured using a scintillation counter (TopCount, PerkinElmer). The obtained results are shown in terms of IC50 values (nM) in the following table.

Experiment [2] concerns the target T2, OX2 (Homo sapiens, UniProt O43614).
T2 sequence (O43614 1-444): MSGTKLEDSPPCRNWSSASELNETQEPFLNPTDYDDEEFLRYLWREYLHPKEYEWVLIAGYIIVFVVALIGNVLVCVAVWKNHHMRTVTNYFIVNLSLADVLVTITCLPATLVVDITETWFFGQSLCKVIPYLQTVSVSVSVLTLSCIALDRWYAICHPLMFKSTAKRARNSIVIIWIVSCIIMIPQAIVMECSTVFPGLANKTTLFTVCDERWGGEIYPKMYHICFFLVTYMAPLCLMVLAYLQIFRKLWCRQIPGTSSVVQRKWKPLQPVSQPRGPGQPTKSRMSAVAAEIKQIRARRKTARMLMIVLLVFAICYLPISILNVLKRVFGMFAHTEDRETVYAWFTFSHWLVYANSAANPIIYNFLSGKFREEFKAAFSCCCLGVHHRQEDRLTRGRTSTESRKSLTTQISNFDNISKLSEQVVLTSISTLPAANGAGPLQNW
Nature of the experiment: Orexin-receptor binding ability, [125I]-OX-A, CHO cell membranes expressing OX2. Also noted: expressed in transfected cells; host or cells: CHO cells (membrane preparation). The protocol:
as §1, §2
Cell membranes were prepared from recombinant CHO cells that expressed OX2 or OX1. The cell membranes were used in an amount of 5 μg protein/assay. Test compound in various concentrations, and 0.2 nM [^125I]-OX-A as tracer were added to the cell membranes, and then allowed to react at room temperature for 30 minutes. After completion of the reaction, the reaction solution as a whole was discarded, and the wells were then washed once with 200 ul of wash buffer (25 mM HEPES (pH 7.5), 1 mM CaCl2, 5 mM MgCl2, 0.5% BSA, 0.1% sodium azide, 0.05% Tween-20, and 525 mM sodium chloride). Finally, the radioactivity of each well was measured using a scintillation counter (TopCount, PerkinElmer). The obtained results are shown in terms of IC50 values (nM) in the following table.

The target in experiment [3] is T1, OX1. As to the kind of experiment: Antagonism PLAP reporter assay, HEK-293 cells expressing human OX1. The class given is cell-based. As to conditions: HEK-293, 1 nM human OX-A; IC50 converted to Ki by Cheng-Prusoff equation. Also noted: expressed in transfected cells; host or cells: HEK-293 cell line, expression vector pBabeCLIH. Here is the method: (§3) The antagonistic function of the compound of the present invention to prevent the activation of OX2 and OX1 by orexin-A (OX-A), which is a natural peptide agonist, was measured using a cell-based reporter assay. A HEK-293 cell line expressing genetically recombinant human OX2 (accession No. NM_001526.3) or a HEK-293 cell line expressing genetically recombinant human OX1 (accession No. NM_001525.2), which had pBabeCLIH as expression vector, was used. The cells were plated at a density of 10,000 cells/well onto a non-coated 96-well plate in Dulbecco's modified Eagle medium (Sigma Cat No. D6046: 10% v/v heat-inactivated fetal bovine serum was contained). The cells were cultured at 37° C. overnight, so that they could adhere to the plate. On the following day, cells were incubated with a compound of the present invention dissolved in Dulbecco's modified Eagle medium (Sigma Cat No. A8806: 0.1% w/v bovine serum albumin was contained), and added to the cell plate to reach a final concentration of 0.1% dimethyl sulfoxide.
(§4) The thus obtained mixture was incubated at room temperature for 1 hour. Thereafter, human OX-A and forskolin were dissolved in the same medium as described above, which contained fetal bovine serum albumin, and the medium was then added to the cells, resulting in a final concentration of 300 nM forskolin. Subsequently, the cells were cultured at 37° C. for approximately 18 to 24 hours. During the culture, as a result of activation of the orexin receptor and subsequent dose-dependent increase in intracellular calcium concentration, a reporter enzyme, placental alkaline phosphatase (PLAP), was expressed under the control of a CRE x4+VIP promoter in a pBabeCLcre4vPdNN vector and secreted into the culture medium supernatant. On the following day, reporter enzyme activity was detected by mixing 5 ul of the culture medium supernatant with 20 ul of detection buffer (containing 1.34 g/L sodium bicarbonate, 1.27 g/L sodium carbonate and 0.2 g/L magnesium sulfate heptahydrate in water) and 25 ul of Lumi-Phos530 reagent (Wako Pure Chemical Industries Ltd.), followed by incubating the obtained mixture light-protected at room temperature for 2 hours, before performing luminescence measurement (ARVO Reader, PerkinElmer). The Kd value of human OX-A with respect to each receptor was measured by titration from 0 to 300 nM. Then, the IC50 value of the compound of the present invention with respect to the activity of 1 nM human OX-A was converted into a Ki value (nM) using the Cheng-Prusoff equation.
On the technique in general: Reporter assays use an easily measured gene product as a stand-in for the process of interest.

Experiment [4] concerns the target T2, OX2. As to the kind of experiment: Antagonism PLAP reporter assay, HEK-293 cells expressing human OX2. Further details: expressed in transfected cells; host or cells: HEK-293 cell line, expression vector pBabeCLIH. The class given is cell-based. As to conditions: HEK-293, 1 nM human OX-A; IC50 converted to Ki by Cheng-Prusoff equation. The protocol:
as §3, §4

[5] abbreviates: membranes of recombinant CHO cells, 0.2 nM [125I]-OX-A tracer, read-out: OX1 (IC50).
Where [6] appears, read: membranes of recombinant CHO cells, 0.2 nM [125I]-OX-A tracer, read-out: OX2 (IC50).

`COc1ccc(OCC2(c3ccccc3)CC2C(=O)Nc2cccc(F)n2)cc1OC` (stereo not drawn) [Example 27, N-(6-fluoropyridin-2-yl)-2-[(3,4-dimethoxyphenyl)oxymethyl]-2-phenylcyclopropanecarboxamide]: the IC50 (as a rule, the concentration needed to halve the response being measured) at OX1 [1] is 37 nM; at OX2 [2] it was 4 nM. Also, the inhibition constant (Ki) (commonly the equilibrium dissociation constant of an inhibitor or competing ligand from its target) at OX1 [3] is 98 nM; at OX2 [4], 3.4 nM.
`COc1ccc(OCC2(c3ccccc3)CC2C(=O)Nc2cncc(Cl)c2)cc1OC` (stereo not drawn) [Example 11, N-(5-chloropyridin-3-yl)-2-[(3,4-dimethoxyphenyl)oxymethyl]-2-phenylcyclopropanecarboxamide]: the IC50 at OX1 [1] (setting [5]) was found to be 333 nM; at OX2 [2] (setting [6]), 29 nM. Further, the inhibition constant Ki at OX1 [3] amounted to 572 nM; at OX2 [4], 48.2 nM.
`COc1ccc(OCC2(c3ccccc3)CC2C(=O)Nc2cccc(C)n2)cc1OC` (stereo not drawn) [Example 37, N-(6-methylpyridin-2-yl)-2-[(3,4-dimethoxyphenyl)oxymethyl]-2-phenylcyclopropanecarboxamide]: the half-inhibitory concentration (IC50) worked out at 403 nM at OX1 [1] (setting [5]) and 18 nM at OX2 [2] (setting [6]). Besides, the inhibitory constant (Ki) is 593 nM at OX1 [3] and 14 nM on OX2 [4].
In the same order, the values of `COc1ccc(OCC2(c3ccccc3)CC2C(=O)Nc2cc(Cl)ccn2)cc1OC` (stereo not drawn) [Example 28, N-(4-chloropyridin-2-yl)-2-[(3,4-dimethoxyphenyl)oxymethyl]-2-phenylcyclopropanecarboxamide] are 38 nM, 25 nM, 73.8 nM and 11 nM.
Turning to `CCn1cc(OCC2(c3ccccc3)CC2C(=O)Nc2ccc(Cl)cn2)cn1` (stereo not drawn) [Example 81], the results for the IC50 at OX1 [1] (setting [5]) and on OX2 [2] (setting [6]) were 163 nM and 33 nM, respectively. The Ki at OX1 [3] is more than 467 nM; on OX2 [4] it was 78 nM.
On to `COc1ccc(OCC2(c3ccccc3)CC2C(=O)Nc2cc(C#N)ccn2)cc1OC` (stereo not drawn) [Example 18, N-(4-cyanopyridin-2-yl)-2-[(3,4-dimethoxyphenyl)oxymethyl]-2-phenylcyclopropanecarboxamide], for which the IC50 at OX1 [1] (setting [5]) was 105 nM; at OX2 [2] (setting [6]) it was 35 nM. The results for the Ki at OX1 [3] and on OX2 [4] were 186 nM and 23.7 nM, respectively.
The like results for `CCn1nc(C)cc1OCC1(c2ccccc2)CC1C(=O)Nc1ccc(F)cn1` (stereo not drawn) [Example 58] were, in that order, 467 nM, 45 nM, more than 467 nM and 20.9 nM.
As to `COc1ccc(OCC2(c3ccccc3)CC2C(=O)Nc2ccc(Cl)cn2)cc1OC` (stereo not drawn) [Example 6, N-(5-chloropyridin-2-yl)-2-[(3,4-dimethoxyphenyl)oxymethyl]-2-phenylcyclopropanecarboxamide], the IC50 was found to be 19 nM on OX1 [1] and 3 nM at OX2 [2]. In addition, the figures for the inhibition constant Ki on OX1 [3] and at OX2 [4] were 9.8 nM and 0.8 nM, respectively.
`CCn1cc(OCC2(c3ccccc3)CC2C(=O)Nc2ccc(Cl)cn2)ccc1=O` (stereo not drawn) [Example 54, N-(5-chloropyridin-2-yl)-2-[(1-ethyl-6-oxo-1,6-dihydropyridin-3-yl)oxymethyl]-2-phenylcyclopropanecarboxamide]: the results for the concentration for half-maximal inhibition (IC50) at OX1 [1] (setting [5]) and on OX2 [2] (setting [6]) were 61 nM and 3 nM, respectively. Further, the inhibitory constant (Ki) on OX1 [3] was 37.5 nM; at OX2 [4], 0.8 nM.
The like results for `COc1ccc(OCC2(c3ccccc3)CC2C(=O)Nc2cc(C)ns2)cc1OC` (stereo not drawn) [Example 40, N-(3-methylisothiazol-5-yl)-2-[(3,4-dimethoxyphenyl)oxymethyl]-2-phenylcyclopropanecarboxamide] were, in that order, 1050 nM, 36 nM, 752 nM and 51.5 nM.
For `COc1ccc(OCC2(c3ccccc3)CC2C(=O)Nc2cc(C)on2)cc1OC` (stereo not drawn) [Example 21, N-(5-methylisoxazol-3-yl)-2-[(3,4-dimethoxyphenyl)oxymethyl]-2-phenylcyclopropanecarboxamide], the IC50 on OX1 [1] (setting [5]) is 505 nM; on OX2 [2] (setting [6]), 28 nM. The inhibition constant Ki on OX1 [3] was more than 816 nM; at OX2 [4] it was 77.1 nM.
The like results for `CCn1nc(C)cc1OCC1(c2ccccc2)CC1C(=O)Nc1ccc(Cl)cn1` (stereo not drawn) [Example 57] were, in that order, 483 nM, 46 nM, more than 467 nM and 31.7 nM.
`CCn1cc(OCC2(c3ccccc3)CC2C(=O)Nc2ccc(F)cn2)c(C)n1` (stereo not drawn) [Example 79, N-(5-fluoropyridin-2-yl)-2-[(1-ethyl-3-methyl-1H-pyrazol-4-yl)oxymethyl]-2-phenylcyclopropanecarboxamide]: the IC50 on OX1 [1] (setting [5]) is 213 nM; at OX2 [2] (setting [6]), 54 nM. Further, the inhibition constant Ki on OX1 [3] was 275 nM; on OX2 [4], 10.5 nM.
With `COc1cc(F)c(OCC2(c3ccccc3)CC2C(=O)Nc2ccccn2)cc1OC` (stereo not drawn) [Example 78], the values for the IC50 on OX1 [1] (setting [5]) and on OX2 [2] were 212 nM and 20 nM, respectively. Further, the Ki at OX1 [3] is 342 nM; on OX2 [4], 19.2 nM.
On to `COc1ccc(OCC2(c3ccccc3)CC2C(=O)Nc2nc(C)ns2)cc1OC` (stereo not drawn) [Example 7, N-(3-methyl-1,2,4-thiadiazol-5-yl)-2-[(3,4-dimethoxyphenyl)oxymethyl]-2-phenylcyclopropanecarboxamide], for which the concentration for half-maximal inhibition (IC50) at OX1 [1] (setting [5]) came to 1900 nM; on OX2 [2] (setting [6]) it was 43 nM. In addition, the inhibition constant (Ki) was more than 816 nM at OX1 [3] and 55.9 nM on OX2 [4].
